Laboratory results as given in ChEMBL document CHEMBL5303573, “Mapping human microbiome drug metabolism by gut bacteria and their genes” (Nature, 2019).

Columns and labels:
[1] = The drug is tested on Providencia rettgeri strain: DSM1131 for biotransformation. The drug concentrations were measured before and after a 12-h incubation by liquid-chromatography-coupled mass spectrometry (LC–MS); format: ADME; set-up: dose 2 uM, timepoint 0 vs 12 hours; details: 2 µM
[2] = The drug is tested on Eggerthella lenta strain: ATCC25559 for biotransformation. The drug concentrations were measured before and after a 12-h incubation by liquid-chromatography-coupled mass spectrometry (LC–MS); details: 2 µM
[3] = The drug is tested on Bacteroides ovatus strain: ATCC8483 for biotransformation. The drug concentrations were measured before and after a 12-h incubation by liquid-chromatography-coupled mass spectrometry (LC–MS); details: 2 µM
[4] = The drug is tested on Collinsella aerofaciens strain: ATCC25986 for biotransformation. The drug concentrations were measured before and after a 12-h incubation by liquid-chromatography-coupled mass spectrometry (LC–MS); details: 2 µM
[5] = bacteroides thetaiotaomicron, 12 h, 2 µM
Description: The drug is tested on Bacteroides thetaiotaomicron strain: 3731 for biotransformation. The drug concentrations were measured before and after a 12-h incubation by liquid-chromatography-coupled mass spectrometry (LC–MS)

[6] = The drug is tested on Bacteroides pectinophilus strain: ATCC43243 for biotransformation. The drug concentrations were measured before and after a 12-h incubation by liquid-chromatography-coupled mass spectrometry (LC–MS); details: 2 µM
[7] = The drug is tested on Bacteroides vulgatus strain: ATCC8482 for biotransformation. The drug concentrations were measured before and after a 12-h incubation by liquid-chromatography-coupled mass spectrometry (LC–MS); details: phocaeicola vulgatus, 2 µM
[8] = The drug is tested on Dorea formicigenerans strain: ATCC27755 for biotransformation. The drug concentrations were measured before and after a 12-h incubation by liquid-chromatography-coupled mass spectrometry (LC–MS); details: 2 µM
[9] = The drug is tested on Bacteroides uniformis strain: ATCC8492 for biotransformation. The drug concentrations were measured before and after a 12-h incubation by liquid-chromatography-coupled mass spectrometry (LC–MS); details: 2 µM
[10] = parabacteroides distasonis, 12 h, 2 µM
Description: The drug is tested on Parabacteroides distasonis strain: ATCC8503 for biotransformation. The drug concentrations were measured before and after a 12-h incubation by liquid-chromatography-coupled mass spectrometry (LC–MS)

[11] = The drug is tested on Bacteroides fragilis strain: HMW610 for biotransformation. The drug concentrations were measured before and after a 12-h incubation by liquid-chromatography-coupled mass spectrometry (LC–MS); details: 2 µM
[12] = segatella copri, 12 h, 2 µM
Description: The drug is tested on Prevotella copri strain: DSM18205 for biotransformation. The drug concentrations were measured before and after a 12-h incubation by liquid-chromatography-coupled mass spectrometry (LC–MS)

[13] = akkermansia muciniphila, 12 h, 2 µM
Description: The drug is tested on Akkermansia muciniphila strain: ATCC BAA-835 for biotransformation. The drug concentrations were measured before and after a 12-h incubation by liquid-chromatography-coupled mass spectrometry (LC–MS)

[14] = The drug is tested on Bacteroides xylanisolvens strain: DSM18836 for biotransformation. The drug concentrations were measured before and after a 12-h incubation by liquid-chromatography-coupled mass spectrometry (LC–MS); details: 2 µM
[15] = The drug is tested on Bacteroides caccae strain: ATCC43185 for biotransformation. The drug concentrations were measured before and after a 12-h incubation by liquid-chromatography-coupled mass spectrometry (LC–MS); details: 2 µM
[16] = The drug is tested on Blautia hansenii strain: DSM20583 for biotransformation. The drug concentrations were measured before and after a 12-h incubation by liquid-chromatography-coupled mass spectrometry (LC–MS); details: 2 µM
[17] = bacteroides fragilis, 12 h, 2 µM
Description: The drug is tested on Bacteroides fragilis strain: 3397 (T10) for biotransformation. The drug concentrations were measured before and after a 12-h incubation by liquid-chromatography-coupled mass spectrometry (LC–MS)

[18] = The drug is tested on Blautia luti strain: DSM14534 for biotransformation. The drug concentrations were measured before and after a 12-h incubation by liquid-chromatography-coupled mass spectrometry (LC–MS); format: ADME; set-up: dose 2 uM, timepoint 0 vs 12 hours; details: 2 µM
[19] = The drug is tested on Subdoligranulum variabile strain: DSM15176 for biotransformation. The drug concentrations were measured before and after a 12-h incubation by liquid-chromatography-coupled mass spectrometry (LC–MS); details: 2 µM
[20] = The drug is tested on Clostridium asparagiforme strain: DSM15981 for biotransformation. The drug concentrations were measured before and after a 12-h incubation by liquid-chromatography-coupled mass spectrometry (LC–MS); format: ADME; set-up: dose 2 uM, timepoint 0 vs 12 hours; details: enterocloster asparagiformis, 2 µM

SMILES	Bacterial Biotransformation [1]	Bacterial Biotransformation [2]	Bacterial Biotransformation [3]	Bacterial Biotransformation [4]	Bacterial Biotransformation [5]	Bacterial Biotransformation [6]	Bacterial Biotransformation [7]	Bacterial Biotransformation [8]	Bacterial Biotransformation [9]	Bacterial Biotransformation [10]	Bacterial Biotransformation [11]	Bacterial Biotransformation [12]	Bacterial Biotransformation [13]	Bacterial Biotransformation [14]	Bacterial Biotransformation [15]	Bacterial Biotransformation [16]	Bacterial Biotransformation [17]	Bacterial Biotransformation [18]	Bacterial Biotransformation [19]	Bacterial Biotransformation [20]
CCCCC(=O)N(Cc1ccc(-c2ccccc2-c2nnn[nH]2)cc1)[C@H](C(=O)O)C(C)C	Compound NOT metabolized	Compound NOT metabolized	Compound NOT metabolized	Compound NOT metabolized	Compound metabolized	Compound NOT metabolized	Compound metabolized	Compound NOT metabolized	Compound metabolized	Compound metabolized	Compound metabolized	Compound NOT metabolized	Compound NOT metabolized	Compound metabolized	Compound NOT metabolized	Compound NOT metabolized	Compound NOT metabolized			
COc1ccc(/C=C/C(=O)Nc2ccccc2C(=O)O)cc1OC	Compound NOT metabolized		Compound metabolized	Compound NOT metabolized	Compound NOT metabolized	Compound NOT metabolized		Compound NOT metabolized	Compound NOT metabolized	Compound NOT metabolized	Compound metabolized	Compound metabolized	Compound NOT metabolized	Compound NOT metabolized		Compound NOT metabolized	Compound NOT metabolized	Compound NOT metabolized	Compound NOT metabolized	
NC(CO)(CO)CO.O=C(c1ccccc1)c1ccc2n1CCC2C(=O)O (centres undefined) [KETOROLAC TROMETHAMINE]	Compound NOT metabolized			Compound NOT metabolized	Compound metabolized	Compound NOT metabolized	Compound metabolized	Compound NOT metabolized	Compound metabolized		Compound metabolized	Compound metabolized		Compound metabolized	Compound NOT metabolized			Compound NOT metabolized	Compound metabolized	Compound NOT metabolized
CCCCc1nc(Cl)c(CO)n1Cc1ccc(-c2ccccc2-c2nn[nH]n2)cc1 [LOSARTAN]	Compound NOT metabolized	Compound NOT metabolized	Compound NOT metabolized	Compound NOT metabolized	Compound NOT metabolized	Compound NOT metabolized	Compound metabolized	Compound NOT metabolized	Compound metabolized	Compound metabolized	Compound metabolized	Compound NOT metabolized	Compound metabolized	Compound metabolized		Compound NOT metabolized		Compound NOT metabolized		
CC(C)(C)NC[C@H](O)COc1ccccc1C1CCCC1.CC(C)(C)NC[C@H](O)COc1ccccc1C1CCCC1.O=S(=O)(O)O [PENBUTOLOL SULFATE]			Compound NOT metabolized	Compound NOT metabolized	Compound NOT metabolized		Compound metabolized	Compound NOT metabolized	Compound metabolized	Compound NOT metabolized	Compound NOT metabolized			Compound NOT metabolized	Compound NOT metabolized			Compound NOT metabolized	Compound NOT metabolized	Compound NOT metabolized
C=C[C@H]1CN2CC[C@H]1C[C@H]2[C@H](O)c1ccnc2ccc(OC)cc12.C=C[C@H]1CN2CC[C@H]1C[C@H]2[C@H](O)c1ccnc2ccc(OC)cc12.O.O.O=S(=O)(O)O [QUININE SULFATE]	Compound NOT metabolized		Compound NOT metabolized	Compound NOT metabolized		Compound NOT metabolized		Compound NOT metabolized	Compound NOT metabolized	Compound NOT metabolized		Compound NOT metabolized	Compound NOT metabolized	Compound NOT metabolized	Compound NOT metabolized			Compound NOT metabolized		

Further lines, results first:

Bacterial Biotransformation [1]	Bacterial Biotransformation [2]	Bacterial Biotransformation [3]	Bacterial Biotransformation [4]	Bacterial Biotransformation [5]	Bacterial Biotransformation [6]	Bacterial Biotransformation [7]	Bacterial Biotransformation [8]	Bacterial Biotransformation [9]	Bacterial Biotransformation [10]	Bacterial Biotransformation [11]	Bacterial Biotransformation [12]	Bacterial Biotransformation [13]	Bacterial Biotransformation [14]	Bacterial Biotransformation [15]	Bacterial Biotransformation [16]	Bacterial Biotransformation [17]	Bacterial Biotransformation [18]	Bacterial Biotransformation [19]	Bacterial Biotransformation [20]	SMILES
Compound NOT metabolized			Compound NOT metabolized		Compound NOT metabolized		Compound NOT metabolized	Compound metabolized	Compound metabolized	Compound metabolized	Compound NOT metabolized		Compound metabolized	Compound metabolized	Compound metabolized			Compound NOT metabolized	Compound metabolized	COc1c2occc2cc2ccc(=O)oc12 [METHOXSALEN]
Compound NOT metabolized		Compound NOT metabolized	Compound NOT metabolized		Compound NOT metabolized	Compound NOT metabolized	Compound NOT metabolized	Compound NOT metabolized		Compound NOT metabolized	Compound NOT metabolized	Compound NOT metabolized	Compound NOT metabolized	Compound NOT metabolized		Compound NOT metabolized	Compound NOT metabolized		Compound NOT metabolized	CC(C)(C)NCC(O)COc1cccc2c1CC(O)C(O)C2 (centres undefined) [NADOLOL]
Compound NOT metabolized		Compound NOT metabolized	Compound NOT metabolized	Compound NOT metabolized	Compound NOT metabolized		Compound NOT metabolized	Compound metabolized	Compound NOT metabolized	Compound metabolized	Compound NOT metabolized	Compound NOT metabolized	Compound metabolized	Compound NOT metabolized	Compound NOT metabolized	Compound NOT metabolized	Compound NOT metabolized	Compound NOT metabolized	Compound NOT metabolized	O=C(NC(Cc1cc(=O)[nH]c2ccccc12)C(=O)O)c1ccc(Cl)cc1 (centres undefined) [REBAMIPIDE]
Compound NOT metabolized		Compound NOT metabolized	Compound NOT metabolized	Compound NOT metabolized	Compound NOT metabolized	Compound NOT metabolized	Compound NOT metabolized	Compound NOT metabolized	Compound NOT metabolized	Compound NOT metabolized		Compound NOT metabolized		Compound NOT metabolized	Compound NOT metabolized		Compound NOT metabolized	Compound NOT metabolized		CCN(CC)CCNC(=O)c1cc(S(C)(=O)=O)ccc1OC [TIAPRIDE]
